{"source": "patent US20210047324A1", "about": "(Aptinyx Inc., priority 2018, published 2021)", "key": {"NMDAR2A": {"target": "T1, NMDAR2A (Homo sapiens, UniProt Q12879)", "T1 construct": "expressed in transfected cells; host or cells: HEK cells (membrane extract)", "T1 sequence (Q12879 23-1464, species assumed, other chains not shown)": "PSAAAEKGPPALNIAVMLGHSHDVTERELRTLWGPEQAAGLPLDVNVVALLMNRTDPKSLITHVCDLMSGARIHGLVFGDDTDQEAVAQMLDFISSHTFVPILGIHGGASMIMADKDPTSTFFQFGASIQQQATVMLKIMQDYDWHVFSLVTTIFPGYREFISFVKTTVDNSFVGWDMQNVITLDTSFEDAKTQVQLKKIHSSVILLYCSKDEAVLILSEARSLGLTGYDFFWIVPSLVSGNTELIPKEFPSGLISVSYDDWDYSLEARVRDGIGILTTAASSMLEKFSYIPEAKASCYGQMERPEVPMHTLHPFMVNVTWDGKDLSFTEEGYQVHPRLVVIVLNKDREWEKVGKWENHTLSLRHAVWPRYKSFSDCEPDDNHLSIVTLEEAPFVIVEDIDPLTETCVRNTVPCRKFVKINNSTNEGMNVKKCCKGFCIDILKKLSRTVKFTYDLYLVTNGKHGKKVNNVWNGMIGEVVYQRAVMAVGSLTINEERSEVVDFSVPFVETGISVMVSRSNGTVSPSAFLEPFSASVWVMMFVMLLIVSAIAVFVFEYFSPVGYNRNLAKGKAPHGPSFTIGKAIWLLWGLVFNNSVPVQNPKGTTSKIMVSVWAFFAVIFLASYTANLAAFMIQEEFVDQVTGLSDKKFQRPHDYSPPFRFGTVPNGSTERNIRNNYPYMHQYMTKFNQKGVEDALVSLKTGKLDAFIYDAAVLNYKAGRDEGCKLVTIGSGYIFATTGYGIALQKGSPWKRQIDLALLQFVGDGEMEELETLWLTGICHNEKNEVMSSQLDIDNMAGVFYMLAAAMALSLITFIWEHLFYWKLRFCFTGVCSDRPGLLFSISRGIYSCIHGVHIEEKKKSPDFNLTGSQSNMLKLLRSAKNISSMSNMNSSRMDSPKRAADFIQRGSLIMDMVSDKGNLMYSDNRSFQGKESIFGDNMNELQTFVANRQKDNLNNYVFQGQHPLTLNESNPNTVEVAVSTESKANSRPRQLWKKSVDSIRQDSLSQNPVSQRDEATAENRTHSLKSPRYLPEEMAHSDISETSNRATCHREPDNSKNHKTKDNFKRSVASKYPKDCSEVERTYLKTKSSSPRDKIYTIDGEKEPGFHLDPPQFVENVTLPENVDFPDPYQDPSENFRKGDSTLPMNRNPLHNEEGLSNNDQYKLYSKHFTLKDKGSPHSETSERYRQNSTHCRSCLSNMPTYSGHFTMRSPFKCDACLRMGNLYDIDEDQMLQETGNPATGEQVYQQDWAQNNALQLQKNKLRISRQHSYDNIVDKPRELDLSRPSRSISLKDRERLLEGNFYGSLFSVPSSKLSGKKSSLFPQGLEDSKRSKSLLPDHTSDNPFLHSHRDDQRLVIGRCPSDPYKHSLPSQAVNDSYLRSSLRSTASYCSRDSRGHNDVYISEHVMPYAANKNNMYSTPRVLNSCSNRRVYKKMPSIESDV", "assay": "NMDAR agonist assay, [3H]MK-801 binding, NMDAR2A expressing HEK cell membranes", "assay_type": "biochemical", "settings": "50 μM glutamate", "summary_of_the_method": "(§1)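 Membranes from HEK cells (300 μg protein) preincubated 15 min with 50 μM glutamate plus compound (1×10^−15–1×10^−7 M) or 1 mM glycine, then with 0.3 μCi [3H]MK-801 for 15 min at 25° C. (nonequilibrium); filter-bound DPM, baseline-subtracted, expressed as % of 1 mM glycine; EC50 and % maximum from three-parameter fit.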"}, "NMDAR2C": {"target": "T2, NMDAR2C (Homo sapiens, UniProt Q14957)", "T2 construct": "expressed in transfected cells; host or cells: HEK cells (membrane extract)", "T2 sequence (Q14957 20-1233, species assumed, other chains not shown)": "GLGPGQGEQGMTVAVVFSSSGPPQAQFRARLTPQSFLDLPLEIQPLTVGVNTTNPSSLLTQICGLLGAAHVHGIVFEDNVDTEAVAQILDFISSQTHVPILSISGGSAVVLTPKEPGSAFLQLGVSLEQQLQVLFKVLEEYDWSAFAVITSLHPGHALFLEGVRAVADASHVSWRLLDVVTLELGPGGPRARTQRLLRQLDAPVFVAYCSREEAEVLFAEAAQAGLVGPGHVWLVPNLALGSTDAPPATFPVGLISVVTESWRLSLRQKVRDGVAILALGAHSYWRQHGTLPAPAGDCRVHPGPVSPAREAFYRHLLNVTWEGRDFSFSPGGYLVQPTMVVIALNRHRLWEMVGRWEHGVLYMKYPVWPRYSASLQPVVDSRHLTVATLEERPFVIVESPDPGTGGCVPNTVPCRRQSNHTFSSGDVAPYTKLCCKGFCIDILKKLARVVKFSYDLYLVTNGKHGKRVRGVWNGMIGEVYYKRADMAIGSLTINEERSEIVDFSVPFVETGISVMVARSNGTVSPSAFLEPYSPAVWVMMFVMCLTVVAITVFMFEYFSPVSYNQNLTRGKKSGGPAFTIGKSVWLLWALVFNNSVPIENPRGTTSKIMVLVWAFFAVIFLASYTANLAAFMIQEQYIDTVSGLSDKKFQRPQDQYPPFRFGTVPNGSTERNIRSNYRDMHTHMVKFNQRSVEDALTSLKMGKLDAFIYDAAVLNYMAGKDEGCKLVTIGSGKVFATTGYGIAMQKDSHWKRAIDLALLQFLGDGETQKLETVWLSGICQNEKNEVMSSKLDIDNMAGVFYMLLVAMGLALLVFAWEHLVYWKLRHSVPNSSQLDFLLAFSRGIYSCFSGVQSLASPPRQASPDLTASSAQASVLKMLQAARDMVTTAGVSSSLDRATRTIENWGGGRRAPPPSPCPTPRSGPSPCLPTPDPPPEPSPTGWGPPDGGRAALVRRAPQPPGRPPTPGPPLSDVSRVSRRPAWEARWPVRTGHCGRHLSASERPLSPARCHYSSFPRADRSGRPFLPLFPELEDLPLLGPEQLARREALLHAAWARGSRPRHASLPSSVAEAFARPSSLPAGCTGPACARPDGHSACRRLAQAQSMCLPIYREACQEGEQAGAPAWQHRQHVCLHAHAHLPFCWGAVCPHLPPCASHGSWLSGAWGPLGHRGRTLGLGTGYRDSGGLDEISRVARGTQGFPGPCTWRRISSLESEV", "assay": "NMDAR agonist assay, [3H]MK-801 binding, NMDAR2C expressing HEK cell membranes", "assay_type": "biochemical", "settings": "50 μM glutamate; relative to 1 mM glycine", "protocol": "(§2) Assays were conducted as described by Moskal et al., “GLYX-13: a monoclonal antibody-derived peptide that acts as an N-methyl-D-aspartate receptor modulator,” Neuropharmacology, 49, 1077-87, 2005. These studies were designed to determine if the test compounds act to facilitate NMDAR activation in NMDAR2A, NMDAR2B, NMDAR2C or NMDAR2D expressing HEK cell membranes as measured by increases in [^3H]MK-801 binding.\n(§3) In the assay, 300 μg of NMDAR expressing HEK cell membrane extract protein was preincubated for 15 minutes at […] in the presence of saturating concentrations of glutamate (50 μM) and varying concentrations of test compound (1×10^−15M-1×10^−7M), or 1 mM glycine. Following the addition of 0.3 μCi of [3H]MK-801 (22.5 Ci/mmol), reactions were again incubated for 15 minutes at 25° C. (nonequilibrium conditions). Bound and free [3H]MK-801 were separated via rapid filtration using a Brandel apparatus.\n(§4) In analyzing the data, the DPM (disintegrations per minute) of [3H]MK-801 remaining on the filter were measured for each concentration of test compound or for 1 mM glycine. The DPM values for each concentration of a ligand (N=2) were averaged. The baseline value was determined from the best fit curve of the DPM values modeled using the GraphPad program and the log(agonist) vs. response (three parameters) algorithm was then subtracted from all points in the dataset. The % maximal [^3H]MK-801 binding was then calculated relative to that of 1 mM glycine: all baseline subtracted DPM values were divided by the average value for 1 mM glycine. The EC50 and % maximal activity were then obtained from the best fit curve of the % maximal [3H]MK-801 binding data modelled using the GraphPad program and the log(agonist) vs. response (three parameters) algorithm.\n(§5) The tables below summarize the results for the wild type […] NMDAR2A, NMDAR2B, NMDAR2C, and NMDAR2D, and whether the compound is not an agonist (−), is an agonist (+), or is a strong agonist (++), where column A is based on the % maximal [3H]MK-801 binding relative to 1 mM glycine (−=0; <100%=+; and >100%=++); and column B is based on log EC50 values (0=−; ≥1×10^−9 M (e.g., −8)=+; and <1×10^−9 M (e.g., −10)=++)."}, "[1]": {"assay": "Microsomal stability (Rat)", "assay_type": "in vitro ADME", "settings": "after 60 minutes", "protocol": "(§6) Microsomal stability of disclosed compounds was investigated. The following table indicates the percent of compound remaining after 60 minutes."}, "Sprague Dawley rats": {"system": "Sprague Dawley rats", "assay": "Porsolt forced swim test", "assay_type": "in vivo"}, "Plasma stability (Human)": {"assay": "Plasma stability (Human)", "assay_type": "in vitro ADME", "settings": "after 60 minutes", "protocol": "(§7) Plasma stability of disclosed compounds was investigated. The following table indicates the percent of compound remaining after 60 minutes."}, "[2]": {"assay": "Microsomal stability (Human)", "assay_type": "in vitro ADME", "settings": "after 60 minutes", "protocol": "as §6"}, "NMDAR2B": {"target": "T3, NMDAR2B (Homo sapiens, UniProt Q13224)", "T3 construct": "expressed in transfected cells; host or cells: HEK cells (membrane extract)", "T3 sequence (Q13224 27-1484, species assumed, other chains not shown)": "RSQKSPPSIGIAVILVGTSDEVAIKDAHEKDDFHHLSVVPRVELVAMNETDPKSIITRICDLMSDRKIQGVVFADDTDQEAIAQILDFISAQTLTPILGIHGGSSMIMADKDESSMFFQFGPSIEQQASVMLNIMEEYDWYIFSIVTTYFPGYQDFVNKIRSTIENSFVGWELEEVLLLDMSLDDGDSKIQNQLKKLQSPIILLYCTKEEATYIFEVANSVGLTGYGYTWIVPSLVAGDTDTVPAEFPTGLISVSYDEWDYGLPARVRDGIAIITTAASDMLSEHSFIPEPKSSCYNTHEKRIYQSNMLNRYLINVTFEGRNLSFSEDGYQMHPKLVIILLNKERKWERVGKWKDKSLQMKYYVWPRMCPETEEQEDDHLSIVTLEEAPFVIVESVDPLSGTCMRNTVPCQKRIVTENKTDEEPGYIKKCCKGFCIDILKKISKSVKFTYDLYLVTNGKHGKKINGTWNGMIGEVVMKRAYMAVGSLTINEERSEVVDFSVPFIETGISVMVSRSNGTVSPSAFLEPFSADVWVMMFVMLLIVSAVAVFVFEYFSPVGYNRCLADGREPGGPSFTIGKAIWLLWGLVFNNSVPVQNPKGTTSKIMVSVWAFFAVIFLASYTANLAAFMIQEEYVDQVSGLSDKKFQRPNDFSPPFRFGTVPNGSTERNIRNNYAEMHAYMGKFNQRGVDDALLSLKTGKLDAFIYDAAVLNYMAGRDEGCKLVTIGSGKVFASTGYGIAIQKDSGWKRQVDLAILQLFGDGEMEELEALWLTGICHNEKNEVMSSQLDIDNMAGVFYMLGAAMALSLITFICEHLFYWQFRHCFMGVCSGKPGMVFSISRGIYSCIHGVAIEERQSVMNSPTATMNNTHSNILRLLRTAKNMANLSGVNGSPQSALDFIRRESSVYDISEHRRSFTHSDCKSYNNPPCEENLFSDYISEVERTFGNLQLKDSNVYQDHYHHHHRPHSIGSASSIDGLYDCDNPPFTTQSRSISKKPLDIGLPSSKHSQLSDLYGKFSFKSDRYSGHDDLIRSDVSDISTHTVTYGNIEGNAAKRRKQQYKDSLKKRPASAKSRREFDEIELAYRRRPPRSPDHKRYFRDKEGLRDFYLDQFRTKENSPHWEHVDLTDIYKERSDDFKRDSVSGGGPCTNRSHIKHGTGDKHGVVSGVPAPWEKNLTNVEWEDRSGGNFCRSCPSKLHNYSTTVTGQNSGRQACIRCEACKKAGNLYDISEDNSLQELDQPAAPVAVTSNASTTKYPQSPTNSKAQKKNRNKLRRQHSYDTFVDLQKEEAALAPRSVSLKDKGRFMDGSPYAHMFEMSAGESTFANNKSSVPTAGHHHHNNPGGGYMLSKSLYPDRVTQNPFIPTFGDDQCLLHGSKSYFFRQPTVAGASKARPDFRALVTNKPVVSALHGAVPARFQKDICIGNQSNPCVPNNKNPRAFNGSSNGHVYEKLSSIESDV", "assay": "NMDAR agonist assay, [3H]MK-801 binding, NMDAR2B expressing HEK cell membranes", "assay_type": "biochemical", "settings": "50 μM glutamate", "summary_of_the_method": "as §1"}, "Plasma stability (Rat)": {"assay": "Plasma stability (Rat)", "assay_type": "in vitro ADME", "settings": "after 60 minutes", "protocol": "as §7"}, "NMDAR2D [3]": {"target": "T4, NMDAR2D (Homo sapiens, UniProt O15399+Q05586)", "T4 construct": "expressed in transfected cells; host or cells: HEK cells (membrane extract)", "assay": "NMDAR agonist assay, [3H]MK-801 binding, NMDAR2D expressing HEK cell membranes", "assay_type": "biochemical", "settings": "50 μM glutamate; read-out: NMDAR2D B: log EC50 (converted)", "protocol": "as §2, §3, §4, §5"}, "NMDAR2D [4]": {"target": "T5, NMDAR2D (Homo sapiens, UniProt O15399)", "T5 construct": "expressed in transfected cells; host or cells: HEK cells (membrane extract)", "assay": "NMDAR agonist assay, [3H]MK-801 binding, NMDAR2D expressing HEK cell membranes", "assay_type": "biochemical", "settings": "50 μM glutamate; relative to 1 mM glycine", "protocol": "as §2, §3, §4, §5"}}}
{"smiles": "O=C1NCC=CC[C@]12CCCN2", "note": "[GA, (R)-1,7-diazaspiro[4.6]undec-9-en-6-one]", "values": [{"measurement": "EC50", "setting": "NMDAR2A; read-out: NMDAR2A B: log EC50 (converted)", "value": "≥ 1", "unit": "nM"}, {"measurement": "Emax", "setting": "NMDAR2A; 0.25 h, relative to 1 mM glycine, read-out: NMDAR2A A: % maximal [3H]MK-801 binding relative to 1 mM glycine", "value": "< 100", "unit": "%"}, {"measurement": "NMDAR2C A: % maximal [3H]MK-801 binding relative to 1 mM glycine", "setting": "NMDAR2C", "value": 0, "unit": "%"}, {"measurement": "Microsomal (Rat): percent of compound remaining", "setting": "[1]", "value": 90, "unit": "%"}, {"measurement": "% reduction in float time", "setting": "Sprague Dawley rats; 1 wk post-dose, 0.00001 mg/kg", "value": 55, "unit": "%"}, {"measurement": "Significance vs. vehicle", "setting": "Sprague Dawley rats; 1 wk post-dose, 0.00001 mg/kg", "value": "Yes"}, {"measurement": "% reduction in float time", "setting": "Sprague Dawley rats; 1 wk post-dose, 0.001 mg/kg", "value": 71, "unit": "%"}, {"measurement": "Significance vs. vehicle", "setting": "Sprague Dawley rats; 1 wk post-dose, 0.001 mg/kg", "value": "Yes"}, {"measurement": "% reduction in float time", "setting": "Sprague Dawley rats; 1 wk post-dose, 0.1 mg/kg", "value": 72, "unit": "%"}, {"measurement": "Significance vs. vehicle", "setting": "Sprague Dawley rats; 1 wk post-dose, 0.1 mg/kg", "value": "Yes"}, {"measurement": "% reduction in float time", "setting": "Sprague Dawley rats; 1 wk post-dose, 10.0 mg/kg", "value": 44, "unit": "%"}, {"measurement": "Significance vs. vehicle", "setting": "Sprague Dawley rats; 1 wk post-dose, 10.0 mg/kg", "value": "Yes"}, {"measurement": "% reduction in float time", "setting": "Sprague Dawley rats; 1 h post-dose, 0.00001 mg/kg", "value": 29, "unit": "%"}, {"measurement": "Significance vs. vehicle", "setting": "Sprague Dawley rats; 1 h post-dose, 0.00001 mg/kg", "value": "No"}, {"measurement": "% reduction in float time", "setting": "Sprague Dawley rats; 1 h post-dose, 0.001 mg/kg", "value": 58, "unit": "%"}, {"measurement": "Significance vs. vehicle", "setting": "Sprague Dawley rats; 1 h post-dose, 0.001 mg/kg", "value": "Yes"}, {"measurement": "% reduction in float time", "setting": "Sprague Dawley rats; 1 h post-dose, 0.1 mg/kg", "value": 67, "unit": "%"}, {"measurement": "Significance vs. vehicle", "setting": "Sprague Dawley rats; 1 h post-dose, 0.1 mg/kg", "value": "Yes"}, {"measurement": "% reduction in float time", "setting": "Sprague Dawley rats; 1 h post-dose, 10.0 mg/kg", "value": 50, "unit": "%"}, {"measurement": "Significance vs. vehicle", "setting": "Sprague Dawley rats; 1 h post-dose, 10.0 mg/kg", "value": "No"}, {"measurement": "% reduction in float time", "setting": "Sprague Dawley rats; 24 h post-dose, 0.1 mg/kg", "value": 64, "unit": "%"}, {"measurement": "Significance vs. vehicle", "setting": "Sprague Dawley rats; 24 h post-dose, 0.1 mg/kg", "value": "Yes"}, {"measurement": "Plasma (Human): percent of compound remaining", "setting": "Plasma stability (Human)", "value": 95, "unit": "%"}, {"measurement": "Microsomal (Human): percent of compound remaining", "setting": "[2]", "value": 94, "unit": "%"}, {"measurement": "EC50", "setting": "NMDAR2B; read-out: NMDAR2B B: log EC50 (converted)", "value": "≥ 1", "unit": "nM"}, {"measurement": "Emax", "setting": "NMDAR2B; relative to 1 mM glycine, read-out: NMDAR2B A: % maximal [3H]MK-801 binding relative to 1 mM glycine", "value": "< 100", "unit": "%"}, {"measurement": "Plasma (Rat): percent of compound remaining", "setting": "Plasma stability (Rat)", "value": 100, "unit": "%"}, {"measurement": "EC50", "setting": "NMDAR2D [3]", "value": "< 1", "unit": "nM"}, {"measurement": "NMDAR2D A: % maximal [3H]MK-801 binding relative to 1 mM glycine", "setting": "NMDAR2D [4]", "value": "+ (<100%=+)"}]}
